Patent US10208000B2, “Eis inhibitors” (priority 2015, dated 2019)

Key:
[1] = test system: K204 Mtb; assay type: cell-based, Mycobacterium tuberculosis; conditions: for K204 MICKAN: KAN MIC in presence of compound at concentration tested (100x IC50 or 20 μM), KAN line = absence of compound
[2] = test system: H37Rv Mtb; test: Mycobacterial MIC determination by alamar blue assay, KAN with sulfonyl isothiazoles; assay type: cell-based, Mycobacterium tuberculosis; conditions: KAN MIC in presence of compound at concentration tested (100x IC50 or 20 μM); KAN line = absence of compound
[3] = biological target: Eis_Mtb acetyltransferase (Mycobacterium tuberculosis (strain ATCC 25618 / H37Rv), UniProt P9WFK7); assay type: biochemical; conditions: library compounds 20 μM
[4] = test system: Mtb K204; assay type: cell-based, Mycobacterium tuberculosis
[5] = biological target: T1, purified Eis (Mycobacterium tuberculosis (strain ATCC 25618 / H37Rv), UniProt P9WFK7); assay type: biochemical
[6] = test system: AAC(3)-IV; test: Inhibitor selectivity, sulfonamides; assay type: biochemical, E. coli; conditions: concentrations as high as 200 μM
Experimental: (§1) To examine the selectivity of our two best inhibitors (39 and 46) towards Eis, next these two compounds were tested against three other AAC enzymes: AAC(2′)-Ic from Mtb (17, 18), AAC(3)-IV from E. coli (19, 20), and AAC(6′)-Ie/APH(2″)-Ia from Staphylococcus aureus (21, 22).
(§2) The conditions utilized for determination of IC50 values were also used here under the optimum conditions for each enzyme. […] AAC(6′)-Ie/APH(2″)-Ia experiments were incubated at 37° C. All other methods and concentrations are the same as for the experiments with Eis_Mtb.

[7] = biological target: T2, AAC(2′)-Ic (Mycobacterium tuberculosis (strain ATCC 25618 / H37Rv), UniProt P9WQG9); test: biochemical; set-up: species or system Mtb
[8] = biological target: T3, AAC(6′)-Ie/APH(2″)-Ia (Staphylococcus aureus, UniProt P0A0C1); test: Inhibitor selectivity, sulfonamides; assay type: biochemical; conditions: concentrations as high as 200 μM
Experimental: as §1, §2

[9] = test system: Mtb H37Rv; test: Mycobacterial MIC determination by alamar blue, KAN with sulfonamides; assay type: cell-based, Mycobacterium tuberculosis; conditions: anti-TB activity of KAN against Mtb H37Rv with compound; KAN line = KAN alone
[10] = biological target: T1, purified Eis; conditions: read-out: IC50 (μM) in the Eis acetyltransferase assay
[11] = test system: AAC(3)-IV; test: Inhibitor selectivity, sulfonyl isothiazoles; assay type: biochemical, E. coli; conditions: optimal reaction conditions for the enzyme
[12] = biological target: T3, AAC(6′)-Ie/APH(2″)-Ia; test: Inhibitor selectivity, sulfonyl isothiazoles; assay type: biochemical; conditions: optimal reaction conditions for the enzyme
[13] = biological target: T2, AAC(2′)-Ic
Experimental: The conditions described above for determination of IC50 values were used under the optimum conditions for each enzyme. […] AAC(6′)/APH(2″) experiments were incubated at 37° C. while AAC(3)-IV and AAC(2′)-Ic experiments were incubated at 25° C. All other methods and concentrations remained identical to those for the experiments with Eis.

## CCN(CC)CCCNC1=NS(=O)(=O)C(c2ccc(C)c(C)c2)=C1C [Compound 3i]
[1]
  reduction in KAN MIC against Mtb K204: 8 fold
  K204 MICKAN: 1.25 µg/mL
[2]
  H37Rv MICKAN: 0.625 µg/mL

## CC1=C(c2ccc(F)cc2)S(=O)(=O)N=C1NCCCN1CCCCC1 [Compound 6b]
[1]
  K204 MICKAN: 2.5 µg/mL
[2]
  H37Rv MICKAN: 0.625 µg/mL

## CC1=C(c2ccc(F)cc2)S(=O)(=O)N=C1NCCCN1CCCCC1C (stereo not shown) [Compound 7b]
[1]
  K204 MICKAN: 2.5 µg/mL
[2]
  H37Rv MICKAN: 0.625 µg/mL

## CC1=C(c2ccccc2)S(=O)(=O)N=C1NCCCN1CC(C)CC(C)C1 (stereo not shown) [Compound 8a]
[1]
  K204 MICKAN: 5 µg/mL
[2]
  H37Rv MICKAN: 0.625 to 1.25 µg/mL

## CC1=C(c2ccc(C)cc2)S(=O)(=O)N=C1NCCCN1CC(C)CC(C)C1 (stereo not shown) [Compound 8e]
[1]
  K204 MICKAN: 2.5 to 5 µg/mL
[2]
  H37Rv MICKAN: 0.625 µg/mL

## CC1=C(c2ccc(Cl)cc2)S(=O)(=O)N=C1NCCCN1CCc2ccccc2C1 [Compound 11c]
[1]
  reduction in KAN MIC against Mtb K204: 8 fold
  K204 MICKAN: 1.25 µg/mL
[2]
  H37Rv MICKAN: 0.625 µg/mL

## CC1=C(c2ccc(C)cc2)S(=O)(=O)N=C1NCCCN1CCCCCC1 [Compound 12e]
[1]
  K204 MICKAN: 2.5 µg/mL
[2]
  H37Rv MICKAN: 0.625 µg/mL

## CC1=C(c2ccccc2)S(=O)(=O)N=C1NCCCN1CCOCC1 [Compound 13a]
[1]
  K204 MICKAN: 2.5 µg/mL
[2]
  H37Rv MICKAN: 0.625 µg/mL

## CC1=C(c2ccc(C)cc2)S(=O)(=O)N=C1NCCCN1CCOCC1 [Compound 13e]
[1]
  K204 MICKAN: 2.5 µg/mL
[2]
  H37Rv MICKAN: 0.625 µg/mL

## CC1=C(c2cccc(Cl)c2)S(=O)(=O)N=C1NCCCN1CCOCC1 [Compound 13g]
[1]
  K204 MICKAN: 2.5 to 5 µg/mL
[2]
  H37Rv MICKAN: 0.625 µg/mL

## CC1=C(c2ccc(C)c(C)c2)S(=O)(=O)N=C1NCCCN1CCOCC1 [Compound 13i]
[1]
  K204 MICKAN: 5 µg/mL
[2]
  H37Rv MICKAN: 0.625 µg/mL

## CC1=C(c2ccc(Cl)cc2)S(=O)(=O)N=C1NCCCN1CCN(C)CC1 [Compound 14c]
[1]
  K204 MICKAN: 5 µg/mL
[2]
  H37Rv MICKAN: 0.625 µg/mL

## CCCN1CCN(CCCNC2=NS(=O)(=O)C(c3ccc(C)cc3)=C2C)CC1 [Compound 15e]
[1]
  K204 MICKAN: 5 µg/mL
[2]
  H37Rv MICKAN: 0.625 to 1.25 µg/mL

## CCCN1CCN(CCCNC2=NS(=O)(=O)C(c3ccc(C(C)C)cc3)=C2C)CC1 [Compound 15f]
[1]
  K204 MICKAN: 10 µg/mL
[2]
  H37Rv MICKAN: 0.625 to 1.25 µg/mL

## CC1=C(c2ccc(C)c(C)c2)S(=O)(=O)N=C1NCCCN1CCN(C2CCCCC2)CC1 [Compound 17i]
[1]
  K204 MICKAN: 5 µg/mL
[2]
  H37Rv MICKAN: 0.625 to 1.25 µg/mL

## CN(c1ccc(Br)cc1)S(=O)(=O)c1ccc2[nH]c(=O)c(=O)[nH]c2c1 [Compound 29]
[3]
  Eis inhibition in the HTS: identified as hits
[4]; K204 Mtb
  reduction of KAN MIC value compared to KAN alone: four-fold

## CN(c1ccccc1)S(=O)(=O)c1ccc2[nH]c(=O)c(=O)[nH]c2c1 [Compound 33]
[5]
  decrease in Eis inhibitory activity compared to lead 29: 70 fold

## CC1=C(c2ccccc2)S(=O)(=O)N=C1NCCN1CCCCC1 [Compound 33a]
[1]
  K204 MICKAN: 5 µg/mL
[2]
  H37Rv MICKAN: 0.625 µg/mL

## CC(C)c1ccc(N(C)S(=O)(=O)c2ccc3[nH]c(=O)c(=O)[nH]c3c2)cc1 [Compound 35]
[4]; anti-TB activity of KAN against Mtb K204 with compound, KAN line = KAN alone
  K204 MICKAN: 2.5 µg/mL

## CC1=C(c2ccc(C)cc2)S(=O)(=O)N=C1NCCN1CCOCC1 [Compound 35e]
[1]
  K204 MICKAN: 5 µg/mL
[2]
  H37Rv MICKAN: 0.625 µg/mL

## CC1=C(c2cccc(Cl)c2)S(=O)(=O)N=C1NCCN1CCOCC1 [Compound 35g]
[1]
  K204 MICKAN: 2.5 µg/mL
[2]
  H37Rv MICKAN: 0.625 µg/mL

## CC1=C(c2cccc(Br)c2)S(=O)(=O)N=C1NCCN1CCOCC1 [Compound 35h]
[1]
  K204 MICKAN: 2.5 µg/mL
[2]
  H37Rv MICKAN: 0.625 µg/mL

## CC1=C(c2ccc(C)c(C)c2)S(=O)(=O)N=C1NCCN1CCOCC1 [Compound 35i]
[1]
  K204 MICKAN: 2.5 µg/mL
[2]
  H37Rv MICKAN: 0.625 µg/mL

## COc1ccc(C2=C(C)C(NCCN3CCN(C)CC3)=NS2(=O)=O)cc1 [Compound 36d]
[1]
  K204 MICKAN: 2.5 to 5 µg/mL
[2]
  H37Rv MICKAN: 0.625 µg/mL

## CCN1CCN(CCNC2=NS(=O)(=O)C(c3ccc(F)cc3)=C2C)CC1 [Compound 37b]
[1]
  K204 MICKAN: 2.5 to 5 µg/mL
[2]
  H37Rv MICKAN: 0.625 µg/mL

## CCN1CCN(CCNC2=NS(=O)(=O)C(c3ccc(OC)cc3)=C2C)CC1 [Compound 37d]
[1]
  K204 MICKAN: 5 to 10 µg/mL
[2]
  H37Rv MICKAN: 0.625 to 1.25 µg/mL

## COc1cccc(N(C)S(=O)(=O)c2ccc3[nH]c(=O)c(=O)[nH]c3c2)c1 [Compound 39]
[6]
  inhibition of KAN acetylation by AAC(3)-IV: did not inhibit
[7]; read-out: inhibition of AAC(2′)-Ic activity
  inhibition at 200 µM: 15%
[8]
  inhibition of KAN acetylation by AAC(6′)-Ie/APH(2″)-Ia: did not inhibit

## CN(c1ccc2ccccc2c1)S(=O)(=O)c1ccc2[nH]c(=O)c(=O)[nH]c2c1 [Compound 46]
[6]
  inhibition of KAN acetylation by AAC(3)-IV: did not inhibit
[7]
  inhibition of KAN acetylation by AAC(2′)-Ic: did not inhibit
[9]
  H37Rv MICKAN: ≤1.25 µg/mL
[8]
  inhibition of KAN acetylation by AAC(6′)-Ie/APH(2″)-Ia: did not inhibit

## CC1=C(c2ccccc2)S(=O)(=O)N=C1N1CCC(N2CCCCC2)CC1 [Compound 46a]
[1]
  K204 MICKAN: 10 µg/mL
[2]
  H37Rv MICKAN: 0.625 to 1.25 µg/mL

## CC1=C(c2ccc(F)cc2)S(=O)(=O)N=C1N1CCC(N2CCCCC2)CC1 [Compound 46b]
[1]
  K204 MICKAN: 5 µg/mL
[10]
  IC50: 0.092 ± 0.021 µM
[11]
  inhibition of AAC(3)-IV: no inhibition
[12]
  inhibition of AAC(6′)-Ie/APH(2″)-Ia: no inhibition
[2]
  H37Rv MICKAN: 0.625 to 1.25 µg/mL
[13]
  inhibition of AAC(2′)-Ic: no inhibition

## CC1=C(c2ccc(Cl)cc2)S(=O)(=O)N=C1N1CCC(N2CCCCC2)CC1 [Compound 46c]
[1]
  K204 MICKAN: 2.5 µg/mL
[11]
  inhibition of AAC(3)-IV: no inhibition
[12]
  inhibition of AAC(6′)-Ie/APH(2″)-Ia: no inhibition
[2]
  H37Rv MICKAN: 0.625 µg/mL
[13]
  inhibition of AAC(2′)-Ic: no inhibition

## CC1=C(c2cccc(Br)c2)S(=O)(=O)N=C1N1CCC(N2CCCCC2)CC1 [Compound 46h]
[1]
  K204 MICKAN: 5 µg/mL
[2]
  H37Rv MICKAN: 0.625 µg/mL

## CC1=C(c2ccc(C)c(C)c2)S(=O)(=O)N=C1N1CCC(C(=O)N2CCCC2)CC1 [Compound 52i]
[1]
  K204 MICKAN: 2.5 µg/mL
[2]
  H37Rv MICKAN: 0.625 µg/mL

## CCN(CC)C1=NS(=O)(=O)C(c2ccc(F)cc2)=C1C [Compound 81b]
[1]
  K204 MICKAN: 2.5 to 5 µg/mL
[2]
  H37Rv MICKAN: 0.625 µg/mL

## CCN(CC)C1=NS(=O)(=O)C(c2cccc(Cl)c2)=C1C [Compound 81g]
[1]
  K204 MICKAN: 2.5 µg/mL
[2]
  H37Rv MICKAN: 0.625 µg/mL

## CC1=C(c2ccc(F)cc2)S(=O)(=O)N=C1NCc1ccco1 [Compound 87b]
[1]
  K204 MICKAN: 10 µg/mL
[2]
  H37Rv MICKAN: 1.25 µg/mL

## CC1=C(c2ccc(F)cc2)S(=O)(=O)N=C1NCc1ccccc1 [Compound 89b]
[1]
  K204 MICKAN: 10 µg/mL
[2]
  H37Rv MICKAN: 1.25 µg/mL

## CC1=C(c2ccc(C)c(C)c2)S(=O)(=O)N=C1NCC(=O)NCc1ccc2c(c1)OCO2 [Compound 115i]
[1]
  K204 MICKAN: 10 µg/mL
[2]
  H37Rv MICKAN: 0.625 µg/mL

## CCCNC1=NS(=O)(=O)C(c2ccc(F)cc2)=C1C [Compound 139b]
[1]
  K204 MICKAN: 10 µg/mL
[2]
  H37Rv MICKAN: 0.625 µg/mL

## CCCNC1=NS(=O)(=O)C(c2ccc(C)cc2)=C1C [Compound 139e]
[1]
  K204 MICKAN: 10 µg/mL
[2]
  H37Rv MICKAN: 1.25 µg/mL

## CCCNC1=NS(=O)(=O)C(c2ccc(C)c(C)c2)=C1C [Compound 139i]
[1]
  K204 MICKAN: 10 µg/mL
[2]
  H37Rv MICKAN: 1.25 µg/mL

## NC[C@H]1O[C@H](O[C@H]2[C@H](O)[C@@H](O[C@H]3O[C@H](CO)[C@@H](O)[C@H](N)[C@H]3O)[C@H](N)C[C@@H]2N)[C@H](O)[C@@H](O)[C@@H]1O [KAN, kanamycin A, reference compound]
[1]
  K204 MICKAN: 10 µg/mL
[2]
  H37Rv MICKAN: 1.25 µg/mL
